Assay results published in patent US20260207576A1 (priority 2024, published 2026).

Target: Stx2A1 (Escherichia phage 933W, UniProt P09385)
Type: biochemical, E. coli (STEC)
Conditions: read-out: IC50 against Stx2A1

Sequence of Stx2A1 (P09385 23-272 limits assumed): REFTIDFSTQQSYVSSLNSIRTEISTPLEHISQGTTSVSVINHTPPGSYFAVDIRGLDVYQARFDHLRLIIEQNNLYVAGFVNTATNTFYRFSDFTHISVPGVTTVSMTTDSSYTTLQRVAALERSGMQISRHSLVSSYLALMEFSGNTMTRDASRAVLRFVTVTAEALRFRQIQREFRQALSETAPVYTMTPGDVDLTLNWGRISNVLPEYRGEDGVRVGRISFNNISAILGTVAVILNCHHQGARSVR

Q: With `CC1(C)Cc2cc(C(=O)O)sc2-c2ccccc21` [RU-NT-206, 5,5-Dimethyl-4,5-dihydronaphtho[1,2-b]thiophene-2-carboxylic acid] as the compound, how does the IC50 read?
A: 83 ± 30 µM
